Measurements reported in patent US3947411A, “Novel 1-aryl-2-arylalkyl-3-or-4-[4'-(substituted-alkyl)piperazino-1']butanols- 2-or-butenes-1, and methods of manufacture thereof” (Warner-Lambert Company, priority 1972, dated 1976).
Values after ≈ are worked out from the molar mass of the structure shown.

What was measured:
Candida albicans = assay: Agar well inhibition zone test against fungi, Candida albicans (Table II); conditions: quantity per well giving inhibition zone (500, 50, 5 μg tested); Sabouraud agar, 28°, 48 hours
Staphylococcus aureus = assay: Agar well inhibition zone test against bacteria, Staphylococcus aureus (Table III); conditions: quantity per well giving inhibition zone (500, 50, 5 μg tested); nutrient agar, 37°, 24 hours
Solubility in water = format: physicochemical; conditions: hydrochlorides or oxalates, read-out: solubilities (in water)
Protocol: The following list contains examples of those compounds which are made according to the methods disclosed. (The individual compounds are identified by elementary analyses and infrared spectra, by ultra-violet or nuclear resonance spectra, if necessary.) Individual melting points and solubilities (in water) are also given as is the method by which each compound is prepared.
The melting points and solubilities are given for the Hydrochlorides I - XVI; XVIII - XXVII; XXIX - XXXV; XXXVII - XLII; XLIV - LXII; LXIV - LXVII, and the Oxalates XVII; […]; XXXVI; LXIII.

Aspergillus niger = assay: Agar well inhibition zone test against fungi, Aspergillus niger (Table II); conditions: quantity per well giving inhibition zone (500, 50, 5 μg tested); Sabouraud agar, 28°, 48 hours
Escherichia coli = assay: Agar well inhibition zone test against bacteria, Escherichia coli (Table III); conditions: quantity per well giving inhibition zone (500, 50, 5 μg tested); nutrient agar, 37°, 24 hours
C. albicans [1] = assay: Minimum inhibitory concentration for fungi, tube dilution, C. albicans (Table IV); conditions: Candida albicans, 48 h, read-out: Minimum Inhibitory Concentration, C. albicans
A. niger [2] = assay: Minimum inhibitory concentration for fungi, tube dilution, A. niger (Table IV); conditions: Aspergillus niger, 48 h, read-out: Minimum Inhibitory Concentration, A. niger
Staph. aureus = assay: Minimum inhibitory concentration for bacteria, tube dilution, Staph. aureus (Table V); conditions: Staphylococcus aureus, 48 h, read-out: Minimum Inhibitory Concentration, Staph. aureus
A. niger [3] = assay: Minimum inhibitory concentration for fungi in presence of serum, A. niger (Table VI); format: cell-based; conditions: Aspergillus niger; Sabouraud nutrient broth + 10% bovine serum, 28°C, 48 hours
C. albicans [4] = assay: Minimum inhibitory concentration for fungi in presence of serum, C. albicans (Table VI); format: cell-based; conditions: Candida albicans; Sabouraud nutrient broth + 10% bovine serum, 28°C, 48 hours

Compound | solubility (Solubility in water) | MIC (C. albicans [1]) | MIC (A. niger [2]) | MIC (Staph. aureus) | MIC (A. niger [3]) | MIC (C. albicans [4]) | Inhibition Area at μg, Cand. albicans (Candida albicans) | Inhibition Area at μg, Staph. aureus (Staphylococcus aureus) | Inhibition Area at μg, Asp. niger (Aspergillus niger) | Inhibition Area at μg, E. coli (Escherichia coli)
CN1CCN(CC(O)(Cc2ccccc2)Cc2ccccc2)CC1 [LV, 1-phenyl-2-benzyl-3-(4'-methyl-piperazino-1')-propanol-2] | < 10 mg/mL | – | – | – | – | – | > 500 µg | > 500 µg | > 500 µg | > 500 µg
CC(C(=Cc1ccccc1)Cc1ccccc1)N1CCN(CCCl)CC1 (stereo not drawn) [XLIV, 1-phenyl-2-benzyl-3-(4'-β-chloro-ethyl-piperazino-1')-butene-1] | 10 mg/mL (≈ 27.1 mM) | > 1020 mg/L | > 1020 mg/L | – | – | – | 50 µg | 500 µg | 50 µg | 500 µg
CCN(CC)CCN1CCN(C(C)C(O)(Cc2ccccc2)Cc2ccccc2)CC1 (stereo not drawn) [II, 1-phenyl-2-benzyl-3-[4'-(β-diethylaminoethyl)-piperazino-1']-butanol-2] | 50 mg/mL (≈ 118 mM) | 1020 mg/L (≈ 2.42 mM) | 512 mg/L (≈ 1.21 mM) | – | – | – | 50 µg | 500 µg | 50 µg | 500 µg
Cc1cccc(CN2CCN(C(C)C(O)(Cc3ccccc3)Cc3ccccc3)CC2)c1 (stereo not shown) [LIV, 1-phenyl-2-benzyl-3-(4'-m-methyl-benzyl-piperazino-1')-butanol-2] | 10 mg/mL (≈ 23.3 mM) | – | – | – | – | – | > 500 µg | > 500 µg | > 500 µg | > 500 µg
CC(N1CCN(c2ccccc2)CC1)C(O)(Cc1ccccc1)Cc1ccccc1 (stereo not shown) [LII, 1-phenyl-2-benzyl-3-(4'-phenyl-piperazino-1')-butanol-2] | < 10 mg/mL | – | – | – | – | – | > 500 µg | > 500 µg | > 500 µg | > 500 µg
OC(Cc1ccccc1)(Cc1ccccc1)CN1CCN(CCN2CCCCC2)CC1 [LIX, β,β '-diphenyl-β"-[4'-(β-piperidino-ethyl)-piperazino-1']-t-butanol] | 100 mg/mL (≈ 237 mM) | – | 64 mg/L (≈ 0.152 mM) | 1020 mg/L (≈ 2.43 mM) | 64 mg/L | – | 500 µg | 50 µg | 5 µg | 500 µg
CC(N1CCN(C)CC1)C(O)(Cc1ccccc1)Cc1ccccc1 (stereo not shown) [LI, 1-phenyl-2-benzyl-3-[1'-methyl-piperazino-4'-]-butanol-2] | 200 mg/mL (≈ 591 mM) | 256 mg/L (≈ 0.756 mM) | 256 mg/L (≈ 0.756 mM) | – | – | – | 50 µg | 500 µg | 50 µg | 500 µg
CC(N1CCN(Cc2ccccc2)CC1)C(O)(Cc1ccccc1)Cc1ccccc1 (stereo not shown) [LIII, 1-phenyl-2-benzyl-3-(4'-benzyl-piperazino-1')-butanol-2] | 10 mg/mL (≈ 24.1 mM) | – | – | – | – | – | > 500 µg | > 500 µg | > 500 µg | > 500 µg
CC(N1CCN(CCN(C)C)CC1)C(O)(Cc1ccccc1)Cc1ccccc1 (stereo not drawn) [Compound I, 1-phenyl-2-benzyl-3-[4'-(β-dimethylamino-ethyl)-piperazino-1']-butanol-2] | 100 mg/mL (≈ 253 mM) | 64 mg/L (≈ 0.162 mM) | 128 mg/L (≈ 0.324 mM) | – | – | 64 mg/L | 50 µg | 500 µg | 50 µg | 500 µg

Now from value to compound, other results behind:

solubility (Solubility in water) | MIC (C. albicans [1]) | MIC (A. niger [2]) | MIC (Staph. aureus) | MIC (A. niger [3]) | MIC (C. albicans [4]) | Compound | Inhibition Area at μg, Cand. albicans (Candida albicans) | Inhibition Area at μg, Staph. aureus (Staphylococcus aureus) | Inhibition Area at μg, Asp. niger (Aspergillus niger) | Inhibition Area at μg, E. coli (Escherichia coli)
100 mg/mL (≈ 206 mM) | – | – | – | – | – | CCN(CCN1CCN(C(C)C(O)(Cc2ccccc2)Cc2ccccc2)CC1)Cc1ccccc1 (stereo not drawn) [XVII, 1-phenyl-2-benzyl-3-[4'-(β-N-ethyl-N-benzyl-aminoethyl)-piperazino-1']-butanol-2] | 500 µg | > 500 µg | 500 µg | > 500 µg
10 mg/mL (≈ 29.5 mM) | – | – | – | – | – | CN1CCN(CCC(O)(Cc2ccccc2)Cc2ccccc2)CC1 [LVI, 1-phenyl-2-benzyl-4-(4'-methyl-piperazino-1')-butanol-2] | 500 µg | 500 µg | 500 µg | 500 µg
100 mg/mL (≈ 271 mM) | – | – | – | – | – | CC(N1CCN(CCO)CC1)C(O)(Cc1ccccc1)Cc1ccccc1 (stereo not drawn) [XLVI, 1-phenyl-2-benzyl-3-[4'-(β-hydroxyethyl)-piperazino-1']-butanol-2] | 500 µg | 500 µg | 500 µg | > 500 µg
10 mg/mL (≈ 21.9 mM) | – | – | – | – | – | CC(N1CCN(CCN(C)c2ccccc2)CC1)C(O)(Cc1ccccc1)Cc1ccccc1 (stereo not drawn) [XVIII, 1-phenyl-2-benzyl-3-[4'-(β-N-phenyl-N-methyl-aminoethyl)-piperazino-1']-butanol-2] | > 500 µg | > 500 µg | > 500 µg | > 500 µg
100 mg/mL (≈ 238 mM) | – | 64 mg/L (≈ 0.153 mM) | 128 mg/L (≈ 0.305 mM) | – | – | CC(C(=Cc1ccccc1)Cc1ccccc1)N1CCN(CCN2CCOCC2)CC1 (stereo not drawn) [XXXI, 1-phenyl-2-benzyl-3-[4'-(β-morpholino-ethyl)-piperazino-1']-butene-1] | 500 µg | 50 µg | 50 µg | > 500 µg
25 mg/mL (≈ 57.9 mM) | 16 mg/L (≈ 0.0371 mM) | 32 mg/L (≈ 0.0741 mM) | 128 mg/L (≈ 0.297 mM) | – | – | CC1CCCN(CCN2CCN(C(C)C(=Cc3ccccc3)Cc3ccccc3)CC2)C1 (stereo not drawn) [XXXIV, 1-phenyl-2-benzyl-3-{4'-[β-(3"-methylpiperidino)-ethyl]-piperazino-1'}-butene-1] | 50 µg | 50 µg | 50 µg | 500 µg
100 mg/mL (≈ 197 mM) | – | – | – | – | – | CN1CCN(CCCCCCN2CCN(CCC(O)(Cc3ccccc3)Cc3ccccc3)CC2)CC1 [LXI, 1-phenyl-2-benzyl-4-{4'-[w-(4"-methyl-piperazino-1")-n-hexyl]-piperazino-1'}-butanol-2] | > 500 µg | > 500 µg | > 500 µg | > 500 µg
100 mg/mL (≈ 230 mM) | – | 64 mg/L (≈ 0.147 mM) | – | 8 mg/L | – | OC(CCN1CCN(CCN2CCCCC2)CC1)(Cc1ccccc1)Cc1ccccc1 [LX, 1-phenyl-2-benzyl-4-[4'-(β-piperidinoethyl)-piperazino-1']-butanol-2] | 500 µg | 500 µg | 50 µg | 500 µg
50 mg/mL (≈ 97.5 mM) | > 1020 mg/L | – | > 1020 mg/L | – | – | CC(N1CCN(CCN2CCN(c3ccccc3)CC2)CC1)C(O)(Cc1ccccc1)Cc1ccccc1 (stereo not drawn) [XI, 1-phenyl-2-benzyl-3-{4'-[β-(4"-phenyl-piperazino-1")-ethyl]-piperazino-1'}-butanol-2] | 50 µg | 50 µg | 500 µg | > 500 µg
50 mg/mL (≈ 91.3 mM) | – | – | – | – | – | CC(N1CCN(CCN(Cc2ccccc2)Cc2ccccc2)CC1)C(O)(Cc1ccccc1)Cc1ccccc1 (stereo not drawn) [XVI, 1-phenyl-2-benzyl-3-[4'-(β-dibenzylamino-ethyl)-piperazino-1']-butanol-2] | > 500 µg | > 500 µg | > 500 µg | > 500 µg
< 10 mg/mL | – | – | – | – | – | OC(CCN1CCN(c2ccccc2)CC1)(Cc1ccccc1)Cc1ccccc1 [LVII, 1-phenyl-2-benzyl-4-(4'-phenyl-piperazino-1')-butanol-2] | > 500 µg | > 500 µg | > 500 µg | 500 µg
50 mg/mL (≈ 98.3 mM) | 8 mg/L (≈ 0.0157 mM) | 128 mg/L (≈ 0.252 mM) | 16 mg/L (≈ 0.0314 mM) | – | 512 mg/L | CC(C(=Cc1ccccc1)Cc1ccccc1)N1CCN(CCN2CCN(Cc3ccccc3)CC2)CC1 (stereo not drawn) [XXXVII, 1-phenyl-2-benzyl-3-{4'-[β-(4"-benzylpiperazino-1")-ethyl]-piperazino-1'}-butene-1] | 5 µg | 5 µg | 5 µg | 500 µg
